Experimental data published in paper PMC12396409, “Screening and hit evaluation of a microbial metabolite library against the pathogenic Plasmodium falciparum and Toxoplasma gondii parasites” (International Journal for Parasitology: Drugs and Drug …, 2025).
Where a name gives a salt, the structure may show the parent alone. Read-outs that look alike come from different tables or passages of the source.

Experiments:
[1] = tested on: P. falciparum 3D7 parasites; experiment: P. falciparum growth inhibition assay, 1-cycle (72 h treatment), SYBR DNA staining (library screen at 2 μg/mL and dose-response); type: cell-based, Plasmodium falciparum
[2] = tested on: P. falciparum 3D7 parasites; experiment: P. falciparum growth inhibition assay, 2-cycle (120 h treatment), delayed-death screen and dose-response; type: cell-based, Plasmodium falciparum
[3] = tested on: T. gondii RH strain (RH-Tub-eYFP) tachyzoites; experiment: microbe, parasite or virus in culture; type: cell-based, Toxoplasma gondii
[4] = library screen at 2 μg/mL, 72 h, % growth, replicate 1
[5] = library screen at 2 μg/mL, 72 h, % growth, replicate 2
[6] = library screen at 2 μg/mL, 120 h, % growth, replicate 1
[7] = library screen at 2 μg/mL, 120 h, % growth, replicate 2
[8] = Plasmodium falciparum, 3D7, library screen at 2 μg/mL, 72 h, % growth, replicate 1, read-out: Pf_72h_%Growth_Rep1
[9] = Plasmodium falciparum, 3D7, library screen at 2 μg/mL, 72 h, % growth, replicate 2, read-out: Pf_72h_%Growth_Rep2
[10] = Plasmodium falciparum, 3D7, library screen at 2 μg/mL, 120 h, % growth, replicate 1, read-out: Pf_120h_%Growth_Rep1
[11] = Plasmodium falciparum, 3D7, library screen at 2 μg/mL, 120 h, % growth, replicate 2, read-out: Pf_120h_%Growth_Rep2

## CC[C@@H]1C[C@H]2CC[C@H](O2)[C@H](C)C(=O)O[C@@H](C)C[C@@H]2CC[C@@H](O2)[C@@H](C)C(=O)O[C@H](CC)C[C@H]2CC[C@H](O2)[C@H](C)C(=O)O[C@@H](C)C[C@@H]2CC[C@@H](O2)[C@@H](C)C(=O)O1 [Dinactin]
[1]; Plasmodium falciparum, 3D7, 72 h, library screen at 2 μg/mL, 72 h, % growth, replicate 1, read-out: Pf_72h_%Growth_Rep1
  activity at 2 µg/mL: 3.66%
[1]; Plasmodium falciparum, 3D7, 72 h, library screen at 2 μg/mL, 72 h, % growth, replicate 2, read-out: Pf_72h_%Growth_Rep2
  activity at 2 µg/mL: -1.84%
[2]; Plasmodium falciparum, 3D7, 120 h, library screen at 2 μg/mL, 120 h, % growth, replicate 1, read-out: Pf_120h_%Growth_Rep1
  activity at 2 µg/mL: 15.7%
[2]; Plasmodium falciparum, 3D7, 120 h, library screen at 2 μg/mL, 120 h, % growth, replicate 2, read-out: Pf_120h_%Growth_Rep2
  activity at 2 µg/mL: 11%
[3]; Toxoplasma gondii, 72 h, library screen at 2 μg/mL, 72 h, % growth, replicate 1; read-out: Tg_72h_%Growth_Rep1
  percent parasite growth at 2 µg/mL: 5.15%
[3]; Toxoplasma gondii, 72 h, library screen at 2 μg/mL, 72 h, % growth, replicate 2; read-out: Tg_72h_%Growth_Rep2
  percent parasite growth at 2 µg/mL: 2.32%

## COc1c(Cl)c(O)c(Cl)c(C)c1C(=O)O[C@H]1[C@H](O)C[C@H](O[C@H]2[C@@H](O)CC(=O)O[C@@H]2C)O[C@@H]1C [Flambalactone]
[1]; [4]
  Pf_72h_%Growth_Rep1: 83.21%
[1]; [5]
  Pf_72h_%Growth_Rep2: 82.63%
[2]; [6]
  Pf_120h_%Growth_Rep1: 97.51%
[2]; [7]
  Pf_120h_%Growth_Rep2: 89.66%
[3]; [4]
  Tg_72h_%Growth_Rep1: 143.45%
[3]; [5]
  Tg_72h_%Growth_Rep2: 100.30%

## CN(C)[C@H]1C(O)=C(C(N)=O)C(=O)[C@@]2(O)C(O)=C3C(=O)c4c(O)cccc4[C@@](C)(O)[C@H]3C[C@@H]12 [Epitetracycline hydrochloride]
[1]; Plasmodium falciparum, 3D7; P. falciparum, 2 μg/mL, 72 h; read-out: 1) Growth (%) at 72 h
  activity at 2 µg/mL: 57.7%
[1]; [8]
  activity at 2 µg/mL: 65.2%
[1]; [9]
  activity at 2 µg/mL: 50.1%
[2]
  3) Fold change (72 h/120 h): 3.9
[2]; Plasmodium falciparum, 3D7; P. falciparum, 2 μg/mL, 120 h; read-out: 2) Growth (%) at 120 h
  activity at 2 µg/mL: 14.7%
[2]; [10]
  activity at 2 µg/mL: 18%
[2]; [11]
  activity at 2 µg/mL: 11.5%
[3]; Toxoplasma gondii, 72 h, read-out: Tg_72h_%Growth_Rep1
  percent parasite growth at 2 µg/mL: 125%
[3]; Toxoplasma gondii, 72 h, read-out: Tg_72h_%Growth_Rep2
  percent parasite growth at 2 µg/mL: 100%

## CCC(C)C1OC2(CCC1C)CC1CC(CC=C(C)C(O)C(C)C=CC=C3COC4C(O)C(C)=CC(C(=O)O1)C34O)O2 (stereo not drawn) [BIA-I1151]
[1]; P. falciparum 3D7, 72 h, library screen at 2 μg/mL, % growth, replicate 1
  Pf_72h_%Growth_Rep1: 82.86%
[1]; P. falciparum 3D7, 72 h, library screen at 2 μg/mL, % growth, replicate 2
  Pf_72h_%Growth_Rep2: 77.78%
[2]; P. falciparum 3D7, 120 h, library screen at 2 μg/mL, % growth, replicate 1
  Pf_120h_%Growth_Rep1: 87.69%
[2]; P. falciparum 3D7, 120 h, library screen at 2 μg/mL, % growth, replicate 2
  Pf_120h_%Growth_Rep2: 91.70%
[3]; T. gondii RH, 72 h, library screen at 2 μg/mL, % growth, replicate 1
  Tg_72h_%Growth_Rep1: 121.58%
[3]; T. gondii RH, 72 h, library screen at 2 μg/mL, % growth, replicate 2
  Tg_72h_%Growth_Rep2: 95.56%

## COc1c(O)c2c(=O)cc3c4c5c(cc(=O)c6c(O)c(OC)c(C[C@H](C)OC(C)=O)c(c(c1C[C@H](C)OC(C)=O)c24)c65)OCO3 [Diacetylcercosporin]
[1]; [4]
  Pf_72h_%Growth_Rep1: 2.60%
[1]; [5]
  Pf_72h_%Growth_Rep2: 15.99%
[2]; [6]
  Pf_120h_%Growth_Rep1: -5.54%
[2]; [7]
  Pf_120h_%Growth_Rep2: 6.35%
[3]; [4]
  Tg_72h_%Growth_Rep1: 4.49%
[3]; [5]
  Tg_72h_%Growth_Rep2: 14.87%

## CN1C(=O)c2ccccc2-n2c(nc3ccccc3c2=O)[C@@]12O[C@H]2c1ccccc1 [Benzomalvin C]
[1]; [4]
  Pf_72h_%Growth_Rep1: 80.29%
[1]; [5]
  Pf_72h_%Growth_Rep2: 84.20%
[2]; [6]
  Pf_120h_%Growth_Rep1: 69.94%
[2]; [7]
  Pf_120h_%Growth_Rep2: 71.59%
[3]; [4]
  Tg_72h_%Growth_Rep1: 89.14%
[3]; [5]
  Tg_72h_%Growth_Rep2: 100.15%

## Cc1cc(O)cc2oc(=O)c3c(O)cc(O)cc3c12 [Alternariol]
[1]; [8]
  activity at 2 µg/mL: 84.6%
[1]; [9]
  activity at 2 µg/mL: 91.2%
[2]; [10]
  activity at 2 µg/mL: 171%
[2]; [11]
  activity at 2 µg/mL: 90.2%
[3]; Toxoplasma gondii; library screen at 2 μg/mL, 72 h, % growth, replicate 1; read-out: Tg_72h_%Growth_Rep1
  percent parasite growth at 2 µg/mL: 37.5%
[3]; Toxoplasma gondii; library screen at 2 μg/mL, 72 h, % growth, replicate 2; read-out: Tg_72h_%Growth_Rep2
  percent parasite growth at 2 µg/mL: 99.9%
